# Experimental data as given in patent US9770451B2, “Composition including ATM inhibitor for reducing cellular senescence and use of the composition” (Samsung Electronics Co., Ltd., priority 2014, dated 2017).
# Test system: progeria senescent fibroblasts (passage 17)
# Assay: Mitochondrial membrane potential (JC-1)
# Type: cell-based, human
# Conditions: CP-466722 0.1 μM
# Experimental: The mitochondrial activity potential (i.e., mitochondrial membrane potential) was measured according to the protocol of the manufacturer of the MitoProbe™ JC-1 assay kit for flow cytometry (Life technologies: T3168). […] Consequently, mitochondrial depolarization is indicated by a decrease in the red/green fluorescence intensity ratio. The cultured cells were analyzed by flow cytometry by using an FACSCaliber (Beckton Dickinson) using excitation at a wavelength of 488 nm, and band-pass emission light filters at a wavelength of 530/30 nm and 585/42 nm. The results were analyzed using Cell Quest 3.2 software (Beckton Dickinson). FIG. 12 is a graph showing results of measuring mitochondrial activity potential (B) of the cultured cells. […]
# The mitochondrial activity potential (i.e., mitochondrial membrane potential) was measured according to the protocol of the manufacturer using the MitoProbe™ JC-1 assay kit for flow cytometry (Life technologies: T3168). […] Consequently, mitochondrial depolarization is indicated by a decrease in the red/green fluorescence intensity ratio. The cultured cells were analyzed by flow cytometry by using an FACSCaliber (Beckton Dickinson) using excitation at a wavelength of 488 nm, and band-pass emission light filters at a wavelength of 530/30 nm and 585/42 nm. The results were analyzed using Cell Quest 3.2 software (Beckton Dickinson).
compound,measurement,value
"COc1cc2ncnc(-n3nc(-c4ccccn4)nc3N)c2cc1OC [CP-466722, 2-(6,7-dimethoxyquinazolin-4-yl)-5-(pyridin-2-yl)-2H-1,2,4-triazol-3-amine]",mitochondrial activity potential vs control,significantly increased
